Results published in ChEMBL document CHEMBL5226341, “Discovery of a Potent FLT3 Inhibitor (LT-850-166) with the Capacity of Overcoming a Variety of FLT3 Mutations” (J Med Chem, 2021).
pIC50: −log10 of the molar value. The source made the active and inactive calls. The calls are words filed in the database; no cut-off is given here.

Experiments:
[1] = system: MV4-11; assay: Antitumor activity against human MV4-11 cells xenografted in BALB/c mouse assessed as tumor growth inhibition at 15 mg/kg, iv BID for 21 days by vernier caliper analysis; format: functional; details: MV4-11, 504 h, time 21 day, read-out: TGI
[2] = Toxicity in BALB/c mouse xenografted with human MV4-11 cells assessed as morphological changes in heart at 15 mg/kg, iv for 21 days by H and E staining based analysis; format: organism-based; details: in vivo, 504 h, time 21 day
[3] = system: BaF3; assay: Antiproliferative activity against mouse BaF3 cells harboring FLT3-ITD mutant assessed as reduction in cell viability measured after 72 hrs by CellTiterGlo luminescent assay; format: functional, cell-based; details: BaF3, 72 h
[4] = Toxicity in BALB/c mouse xenografted with human MV4-11 cells assessed as morphological changes in lung at 15 mg/kg, iv for 21 days by H and E staining based analysis; format: organism-based; details: in vivo, 504 h, time 21 day
[5] = Toxicity in BALB/c mouse xenografted with human MV4-11 cells assessed as lymphocyte count at 15 mg/kg, iv for 21 days; format: organism-based; details: in vivo, 504 h, time 21 day
[6] = system: MDA-MB-231; assay: Antiproliferative activity against human MDA-MB-231 cells assessed as reduction in cell viability measured after 72 hrs by CellTiterGlo luminescent assay; format: functional, cell-based; details: MDA-MB-231, 72 h
[7] = Oral bioavailability in Sprague-Dawley rat at 10 mg/kg measured for 24 hrs by LC-MS/MS analysis; format: ADME, organism-based; details: in vivo
[8] = Induction of apoptosis in mouse HCD-57 cells at 100 nM incubated for 24 hrs by AnnexinV-FITC/PI staining based flow cytometry; format: toxicity, cell-based; details: hcd-57, 24 h, 0.1 µM
[9] = system: Receptor-type tyrosine-protein kinase FLT3 (Homo sapiens), P36888 [UNDEFINED MUTATION]; format: cell-based; details: BaF3, dose 0.1-100 nM, time 4.0 hrs
Receptor-type tyrosine-protein kinase FLT3 (Homo sapiens), P36888 [UNDEFINED MUTATION], sequence (P36888 whole entry, looked up, stated change not applied): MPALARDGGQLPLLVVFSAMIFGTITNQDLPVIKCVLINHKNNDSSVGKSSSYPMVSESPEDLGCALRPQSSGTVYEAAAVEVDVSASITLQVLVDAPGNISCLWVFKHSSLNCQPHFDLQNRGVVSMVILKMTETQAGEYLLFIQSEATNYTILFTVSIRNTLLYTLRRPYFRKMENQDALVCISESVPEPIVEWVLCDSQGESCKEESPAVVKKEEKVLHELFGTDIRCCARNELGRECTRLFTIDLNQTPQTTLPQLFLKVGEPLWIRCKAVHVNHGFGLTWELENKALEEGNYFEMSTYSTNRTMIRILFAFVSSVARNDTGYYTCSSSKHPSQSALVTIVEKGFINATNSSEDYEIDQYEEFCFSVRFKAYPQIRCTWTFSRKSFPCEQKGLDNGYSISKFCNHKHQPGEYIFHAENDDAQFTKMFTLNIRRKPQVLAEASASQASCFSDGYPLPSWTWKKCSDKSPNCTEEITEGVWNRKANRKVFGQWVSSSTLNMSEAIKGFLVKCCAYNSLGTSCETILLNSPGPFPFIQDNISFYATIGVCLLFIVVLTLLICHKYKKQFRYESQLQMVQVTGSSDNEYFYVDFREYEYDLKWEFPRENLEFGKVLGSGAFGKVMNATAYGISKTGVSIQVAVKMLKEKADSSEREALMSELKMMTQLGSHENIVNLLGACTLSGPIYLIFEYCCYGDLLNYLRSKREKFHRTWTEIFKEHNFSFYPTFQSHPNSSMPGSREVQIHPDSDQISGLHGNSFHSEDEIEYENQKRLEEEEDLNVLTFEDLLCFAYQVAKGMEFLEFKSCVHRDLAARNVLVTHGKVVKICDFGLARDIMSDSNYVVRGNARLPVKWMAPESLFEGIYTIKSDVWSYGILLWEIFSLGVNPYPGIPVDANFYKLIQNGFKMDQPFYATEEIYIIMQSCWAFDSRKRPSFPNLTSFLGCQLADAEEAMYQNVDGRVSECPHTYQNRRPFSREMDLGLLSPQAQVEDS

[10] = system: BaF3; assay: Antiproliferative activity against mouse BaF3 cells harboring FLT3-ITD-N676D mutant assessed as reduction in cell viability measured after 72 hrs by CellTiterGlo luminescent assay; format: functional, cell-based; details: BaF3, 72 h
[11] = system: BaF3; assay: Antiproliferative activity against mouse BaF3 cells harboring FLT3-ITD-F691L mutant assessed as residual cell viability at 50 nM incubated for 72 hrs by CellTiterGlo luminescent assay; format: functional
[12] = system: Receptor-type tyrosine-protein kinase FLT3 (Homo sapiens), P36888 [UNDEFINED MUTATION]; format: cell-based; details: BaF3, dose 0.1-100 nM, time 4.0 hrs; remark: listed apart in the source
[13] = Half life in Sprague-Dawley rat at 10 mg/kg, po measured for 24 hrs by LC-MS/MS analysis; format: ADME, organism-based; details: in vivo
[14] = system: A549; assay: Antiproliferative activity against human A549 cells assessed as reduction in cell viability measured after 72 hrs by CellTiterGlo luminescent assay; format: functional, cell-based; details: A549, 72 h
[15] = Ratio of IC50 for antiproliferative activity against mouse BaF3 cells harboring FLT3-ITD-F691L mutant to IC50 for antiproliferative activity against mouse BaF3 cells harboring FLT3-ITD mutant; format: functional
[16] = system: MV4-11; assay: Antiproliferative activity against human MV4-11 cells assessed as inhibition of cell growth incubated for 72 hrs by CellTiterGlo luminescent assay; format: functional, cell-based; details: MV4-11, 72 h
[17] = system: HCD-57; assay: Induction of apoptosis in mouse HCD-57 cells harboring FLT3-D835Y mutant at 100 nM incubated for 24 hrs by AnnexinV-FITC/PI staining based flow cytometry; format: functional, cell-based
[18] = system: MV4-11; assay: Induction of apoptosis in human MV4-11 cells assessed as viable cells at 50 nM incubated for 24 hrs by AnnexinV-FITC/PI staining based flow cytometry (reference value: 92.3%); format: functional; details: read-out: Activity
[19] = system: BaF3; assay: Antiproliferative activity against mouse BaF3 cells harboring FLT3-ITD-F691L mutant assessed as reduction in cell viability incubated for 72 hrs by CellTiterGlo luminescent assay; format: functional, cell-based; details: BaF3, 72 h
[20] = system: MKN-45; assay: Antiproliferative activity against human MKN-45 cells assessed as reduction in cell viability measured after 72 hrs by CellTiterGlo luminescent assay; format: functional, cell-based; details: MKN-45, 72 h
[21] = system: MV4-11; assay: Induction of apoptosis in human MV4-11 cells assessed as late apoptotic cells at 50 nM incubated for 24 hrs by AnnexinV-FITC/PI staining based flow cytometry (reference value: 4.2%); format: functional
[22] = system: MV4-11; assay: Induction of cell cycle arrest in human MV4-11 cells assessed as proportion of cells at G1 phase at 50 nM incubated for 24 hrs by PI staining based flow cytometry (reference value: 56%); format: functional
[23] = Tmax in Sprague-Dawley rat at 10 mg/kg, po measured for 24 hrs by LC-MS/MS analysis; format: ADME, organism-based; details: in vivo
[24] = Volume of distribution at steady state in Sprague-Dawley rat at 1 mg/kg, iv measured for 24 hrs by LC-MS/MS analysis; format: ADME, organism-based; details: in vivo, read-out: Vdss
[25] = system: HCD-57; assay: Induction of cell cycle arrest in mouse HCD-57 cells harboring FLT3-ITD mutant at 100 nM incubated for 24 hrs by PI staining based flow cytometry; format: functional
[26] = system: HCD-57; assay: Induction of apoptosis in mouse HCD-57 cells harboring FLT3-ITD mutant at 100 nM incubated for 24 hrs by AnnexinV-FITC/PI staining based flow cytometry; format: functional, cell-based
[27] = system: Panc02; assay: Antiproliferative activity against mouse Panc02 cells assessed as reduction in cell viability measured after 72 hrs by CellTiterGlo luminescent assay; format: functional, cell-based; details: Panc02, 72 h
[28] = system: HCD-57; assay: Antiproliferative activity against mouse HCD-57 cells harboring FLT3-D835Y mutant assessed as reduction in cell viability measured after 72 hrs by CellTiterGlo luminescent assay; format: functional, cell-based
[29] = system: Receptor-type tyrosine-protein kinase FLT3 (Homo sapiens), P36888 [UNDEFINED MUTATION]; assay: Inhibition of FLT3-ITD-F691L mutant (unknown origin) transformed in mouse BaF3 cells assessed as inhibition of STAT5 phosphorylation at Tyr694 residue incubated for 4 hrs by western blot analysis; format: cell-based; details: dose 0.1-100 nM
[30] = system: Receptor-type tyrosine-protein kinase FLT3 (Homo sapiens), P36888 [UNDEFINED MUTATION]; assay: Inhibition of FLT3-ITD-F691L mutant (unknown origin) transformed in mouse BaF3 cells assessed as inhibition of ERK phosphorylation at Thr202/Tyr204 residue incubated for 4 hrs by western blot analysis; format: cell-based; details: dose 0.1-100 nM
[31] = Antiproliferative activity against mouse HCD-57 cells assessed as reduction in cell viability measured after 72 hrs by CellTiterGlo luminescent assay; format: toxicity, cell-based; details: hcd-57, 72 h
[32] = system: MV4-11; assay: Antitumor activity against human MV4-11 cells xenografted in BALB/c mouse assessed as tumor growth inhibition at 15 mg/kg, iv QD for 21 days by vernier caliper analysis; format: functional; details: MV4-11, 504 h, time 21 day, read-out: TGI
[33] = Toxicity in BALB/c mouse xenografted with human MV4-11 cells assessed as change in body weight at 15 mg/kg, iv BID for 21 days; format: organism-based; details: in vivo, 504 h, time 21 day
[34] = target: Receptor-type tyrosine-protein kinase FLT3 (Homo sapiens) (UniProt P36888); assay: Inhibition of FLT3 in human MV4-11 cells assessed as inhibition of ERK phosphorylation at Thr202/Tyr204 residue incubated for 4 hrs by western blot analysis; format: cell-based; details: dose 0.1-100 nM
Receptor-type tyrosine-protein kinase FLT3 (Homo sapiens), sequence (P36888 whole entry): as the sequence (P36888 whole entry, looked up, stated change not applied) above

[35] = system: MV4-11; assay: Induction of apoptosis in human MV4-11 cells assessed as late apoptotic cells at 100 nM incubated for 24 hrs by AnnexinV-FITC/PI staining based flow cytometry (reference value: 4.2%); format: functional
[36] = Toxicity in BALB/c mouse xenografted with human MV4-11 cells assessed as change in body weight at 15 mg/kg, iv QD for 21 days; format: organism-based; details: in vivo, 504 h, time 21 day

CCN1CCN(c2ccc(C(=O)Nc3cc(-c4ccc5ncn(Cc6c(Cl)cccc6Cl)c5c4)[nH]n3)cc2)CC1
inhibition in vivo at 15 mg/kg [1]: 108%
Activity [2]: Non-Toxic
pIC50 [3]: 8.12
Activity [4]: Non-Toxic
Activity [5]: Non-Toxic
pIC50 [6]: 5.41
bioavailability [7]: 1.3%
Activity [8]: Non-Toxic
inhibition [9]: Dose-Dependent Effect
pIC50 [10]: 7.37
Activity [11]: 2.54%
inhibition [12]: Dose-Dependent Effect
half-life [13]: 3.58 h
pIC50 [14]: 5.44
Ratio IC50 [15]: 1.09
pIC50 [16]: 8.53
Activity [17]: Active
viability at 0.05 µM [18]: 61.5%
pIC50 [19]: 8.08
pIC50 [20]: 5.39
Activity [21]: 26.3%
Activity [22]: 88.1%
Tmax [23]: 1.33 h
Vd [24]: 6.27 L/kg
Activity [25]: Active
Activity [26]: Active
pIC50 [27]: 5.56
Activity [28]: Active
inhibition [29]: Dose-Dependent Effect
inhibition [30]: Dose-Dependent Effect
Activity [31]: Non-Toxic
inhibition in vivo at 15 mg/kg [32]: 99.5%
Activity [33]: Non-Toxic
inhibition [34]: Dose-Dependent Effect
Activity [35]: 24.5%
Activity [36]: Non-Toxic
